Laboratory results: US20260091065A1, “VIABLE LYOPHILIZED COMPOSITIONS DERIVED FROM HUMAN TISSUES AND METHODS OF MAKING THE SAME” (OSIRIS THERAPEUTICS, INC., priority 2016, published 2026)

How the values were obtained:
[1] = test system: chorionic stromal cells in suspension; assay: Uptake of FITC-trehalose by chorionic stromal cells in suspension; type: cell-based, human; details: 4 hours at room temperature
Description: Previous reports of lyophilization of cells in suspension have used trehalose as a lyoprotectant. To confirm that placental cells can uptake trehalose, cells were fully isolated from chorionic membranes and added to a well-plate. To the cell suspension, a commercially available fluorescently tagged trehalose, FITC-trehalose, was added and allowed to incubate for 4 hours at room temperature. Cells were washed multiple times to remove any remaining free FITC-trehalose.

[2] = test system: epithelial cells in the amniotic membrane; assay: Uptake of FITC-trehalose by native cells in fresh amniotic membrane; type: cell-based, human; details: 2.5 mM FITC-trehalose in 0.5M trehalose, room temperature, 1 hour
Description: (§1) To further investigate the protective mechanism that leads to viable lyophilized placental membrane compositions, fresh amniotic and chorionic membranes were incubated in 2.5 mM FITC-trehalose in a 0.5M trehalose solution at room temperature for 1 hour and then thoroughly washed to remove excess trehalose. […] Longer incubation times with higher concentrations of trehalose at an elevated temperature could increase diffusion of trehalose into these cells and may promote enhanced cell survival following lyophilization.

[3] = test system: stromal cells in the chorionic membrane; assay: Uptake of FITC-trehalose by native cells in fresh chorionic membrane; type: cell-based, human; details: 2.5 mM FITC-trehalose in 0.5M trehalose, room temperature, 1 hour
Description: as §1

[4] = test system: chondrocytes embedded in bovine cartilage matrix; assay: Uptake of FITC-trehalose by chondrocytes embedded in bovine cartilage matrix; type: cell-based; details: intact bovine cartilage, 4 hours
Description: The same lyophilization methods effective for placental membrane and skin allograft compositions were used for cartilage graft compositions. First, intact pieces of bovine cartilage were incubated with FITC-trehalose for 4 hours and washed thoroughly to remove excess trehalose. […] Intact bovine cartilage, intact bovine cartilage with 1 mm pores, and micronized bovine cartilage were soaked in a trehalose solution for 4 hours at 37 C with agitation prior to lyophilization in the same trehalose solution.

FITC-trehalose
uptake of trehalose [1]: uptake trehalose at low levels | uptake of trehalose [2]: readily uptake trehalose | uptake of trehalose [3]: readily uptake trehalose | uptake of trehalose [4]: some trehalose can be taken up by chondrocytes
